Source: the supplement of paper PMC10307832

What was measured:
Experiment in all cases: relative viability (nuclei count vs DMSO), 5 days (fraction); higher = more cells survive
[1] = compound: CN1CCC(CNc2ccc3ncc(-c4cccc(OC(F)(F)F)c4)n3n2)CC1 [SGI-1776] + Cc1nc(Nc2ncc(C(=O)Nc3c(C)cccc3Cl)s2)cc(N2CCN(CCO)CC2)n1 [Dasatinib] (partner 0.075 µM)
Outline: (§1)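 Relative viability was taken as the ratio of nuclei in treated wells to nuclei in vehicle wells. Lung cancer cell lines in 1536-well plates received compounds by pin tool one day after seeding, either one drug alone or a fixed anchor-drug dose plus five library-drug doses (not always all listed) in √10 steps. Nuclei were counted on 4× images after 5 days of treatment, and values are medians of duplicate plates.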

[2] = compound: CN1CCC(CNc2ccc3ncc(-c4cccc(OC(F)(F)F)c4)n3n2)CC1 [SGI-1776] + Nc1ncn([C@H]2C[C@H](O)[C@@H](CO)O2)c(=O)n1 [Decitabine] (partner 2 µM)
Outline: as §1

[3] = compound: Nc1ccccc1NC(=O)c1ccc(CNC(=O)OCc2cccnc2)cc1 [Entinostat] + COc1cc2c(Oc3ccc(NC(=O)C4(C(=O)Nc5ccc(F)cc5)CC4)cc3F)ccnc2cc1OCCCN1CCOCC1 [Foretinib] (partner 0.25 µM)
Outline: as §1

[4] = compound: C1COCCN1C2=NC(=NC3=C2OC4=C3C=CC=N4)C5=CC(=CC=C5)NC(=O)C6=CN=C(C=C6)N + Cc1cc(Nc2cc(N3CCN(C)CC3)nc(Sc3ccc(NC(=O)C4CC4)cc3)n2)n[nH]1 [Tozasertib] (partner 0.1 µM)
Outline: as §1

Cell Line: UMC-11
- relative viability ([1]; first compound 0.08 µM): 0.449
- relative viability ([1]; first compound 0.8 µM): 0.455
- relative viability ([1]; first compound 2.53 µM): 0.615
- relative viability ([1]; first compound 8 µM): 0.392
- relative viability ([2]; first compound 0.08 µM): 0.588
- relative viability ([2]; first compound 0.8 µM): 0.571
- relative viability ([2]; first compound 2.53 µM): 0.654
- relative viability ([2]; first compound 8 µM): 0.467
- relative viability ([3]; first compound 0.02 µM): 1.22
- relative viability ([3]; first compound 0.06325 µM): 1.08
- relative viability ([3]; first compound 0.2 µM): 0.834
- relative viability ([3]; first compound 0.6325 µM): 0.273
- relative viability ([3]; first compound 2 µM): 0.201
- relative viability ([4]; first compound 0.02 µM): 0.205
- relative viability ([4]; first compound 0.06325 µM): 0.188
- relative viability ([4]; first compound 0.2 µM): 0.193
- relative viability ([4]; first compound 0.6325 µM): 0.182
- relative viability ([4]; first compound 2 µM): 0.177
